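Compound exposure: 48 hours, 5 concentrations, 96-well plates. Here, GI50 denotes the concentration required for 50% inhibition of growth. TGI: concentration producing complete growth inhibition.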
Assays:
Assay in all cases: NCI tumour cell line growth inhibition, 48 h
OVCAR-4 ovarian = system: OVCAR-4 ovarian
KM12 colon = system: KM12 colon
OVCAR-5 ovarian = system: OVCAR-5 ovarian
SW-620 colon = system: SW-620 colon
HCC-2998 colon = system: HCC-2998 colon
SN12C renal = system: SN12C renal
786-0 renal = system: 786-0 renal
UO-31 renal = system: UO-31 renal
TK-10 renal = system: TK-10 renal
UACC-257 melanoma = system: UACC-257 melanoma
SF-295 CNS = system: SF-295 CNS
SF-268 CNS = system: SF-268 CNS
IGROV1 ovarian = system: IGROV1 ovarian
U251 CNS = system: U251 CNS
HOP-92 NSCLC = system: HOP-92 NSCLC
SK-MEL-2 melanoma = system: SK-MEL-2 melanoma
MDA-MB-435 = system: MDA-MB-435
OVCAR-8 ovarian = system: OVCAR-8 ovarian
HT29 colon = system: HT29 colon
SK-MEL-5 melanoma = system: SK-MEL-5 melanoma
NCI-H522 lung = system: NCI-H522 lung
CAKI-1 renal = system: CAKI-1 renal
SK-MEL-28 melanoma = system: SK-MEL-28 melanoma
SK-OV-3 ovarian = system: SK-OV-3 ovarian
CCRF-CEM leukemia = system: CCRF-CEM leukemia
M14 melanoma = system: M14 melanoma
SF-539 CNS = system: SF-539 CNS
HL-60(TB) leukemia = system: HL-60(TB) leukemia
HOP-62 NSCLC = system: HOP-62 NSCLC
HCT-116 colon = system: HCT-116 colon
HCT-15 colon = system: HCT-15 colon
SNB-19 CNS = system: SNB-19 CNS
MOLT-4 leukemia = system: MOLT-4 leukemia
T-47D breast = system: T-47D breast
NCI/ADR-RES ovarian = system: NCI/ADR-RES ovarian
PC-3 prostate = system: PC-3 prostate
A498 renal = system: A498 renal
SNB-75 CNS = system: SNB-75 CNS
COLO 205 colon = system: COLO 205 colon
ACHN renal = system: ACHN renal
NCI-H460 lung = system: NCI-H460 lung
NCI-H226 lung = system: NCI-H226 lung
UACC-62 melanoma = system: UACC-62 melanoma
MDA-MB-231 breast = system: MDA-MB-231 breast
DU-145 prostate = system: DU-145 prostate
NCI-H23 lung = system: NCI-H23 lung
EKVX NSCLC = system: EKVX NSCLC
MALME-3M melanoma = system: MALME-3M melanoma

With `CCCCCOC(=O)Nc1nc(=O)n(C2OC(C)C(O)C2O)cc1F` (stereo not given) the GI50 (OVCAR-4 ovarian) was > 10000 µM, the TGI (OVCAR-4 ovarian) was > 10000 µM and the GI50 (KM12 colon) was > 10000 µM. For the same compound, the TGI (KM12 colon) was > 10000 µM, the GI50 (OVCAR-5 ovarian) was > 10000 µM and the TGI (OVCAR-5 ovarian) was > 10000 µM. For the same compound, the GI50 (SW-620 colon) was > 10000 µM, the TGI (SW-620 colon) was > 10000 µM and the GI50 (HCC-2998 colon) was 271 µM. The TGI (HCC-2998 colon) was > 10000 µM, the GI50 (SN12C renal) was > 10000 µM and the TGI (SN12C renal) was > 10000 µM. The GI50 (786-0 renal) was > 10000 µM, the TGI (786-0 renal) was > 10000 µM and the GI50 (UO-31 renal) was > 10000 µM. The TGI (UO-31 renal) was > 10000 µM, the GI50 (TK-10 renal) was > 10000 µM and the TGI (TK-10 renal) was > 10000 µM. The GI50 (UACC-257 melanoma) was > 10000 µM, the TGI (UACC-257 melanoma) was > 10000 µM and the GI50 (SF-295 CNS) was > 10000 µM. For the same compound, the TGI (SF-295 CNS) was > 10000 µM, the GI50 (SF-268 CNS) was > 10000 µM and the TGI (SF-268 CNS) was > 10000 µM. For the same compound, the TGI (IGROV1 ovarian) was > 10000 µM, the GI50 (U251 CNS) was > 10000 µM and the TGI (U251 CNS) was > 10000 µM. For the same compound, the GI50 (HOP-92 NSCLC) was > 10000 µM, the TGI (HOP-92 NSCLC) was > 10000 µM and the GI50 (SK-MEL-2 melanoma) was > 10000 µM. The TGI (SK-MEL-2 melanoma) was > 10000 µM, the GI50 (MDA-MB-435) was > 10000 µM and the TGI (MDA-MB-435) was > 10000 µM. The GI50 (OVCAR-8 ovarian) was > 10000 µM, the TGI (OVCAR-8 ovarian) was > 10000 µM and the GI50 (HT29 colon) was > 10000 µM. For the same compound, the TGI (HT29 colon) was > 10000 µM, the GI50 (SK-MEL-5 melanoma) was 338 µM and the TGI (SK-MEL-5 melanoma) was > 10000 µM. The GI50 (NCI-H522 lung) was > 10000 µM, the TGI (NCI-H522 lung) was > 10000 µM and the GI50 (CAKI-1 renal) was > 10000 µM. The TGI (CAKI-1 renal) was > 10000 µM, the GI50 (SK-MEL-28 melanoma) was > 10000 µM and the TGI (SK-MEL-28 melanoma) was > 10000 µM. The GI50 (SK-OV-3 ovarian) was > 10000 µM, the TGI (SK-OV-3 ovarian) was > 10000 µM and the GI50 (CCRF-CEM leukemia) was > 10000 µM. For the same compound, the TGI (CCRF-CEM leukemia) was > 10000 µM, the GI50 (M14 melanoma) was > 10000 µM and the TGI (M14 melanoma) was > 10000 µM. The GI50 (SF-539 CNS) was > 10000 µM, the TGI (SF-539 CNS) was > 10000 µM and the GI50 (HL-60(TB) leukemia) was 5070 µM. The TGI (HL-60(TB) leukemia) was > 10000 µM, the GI50 (HOP-62 NSCLC) was > 10000 µM and the TGI (HOP-62 NSCLC) was > 10000 µM. The GI50 (HCT-116 colon) was > 10000 µM, the TGI (HCT-116 colon) was > 10000 µM and the GI50 (HCT-15 colon) was > 10000 µM. For the same compound, the TGI (HCT-15 colon) was > 10000 µM, the GI50 (SNB-19 CNS) was > 10000 µM and the TGI (SNB-19 CNS) was > 10000 µM. For the same compound, the GI50 (MOLT-4 leukemia) was > 10000 µM, the TGI (MOLT-4 leukemia) was > 10000 µM and the GI50 (T-47D breast) was > 10000 µM. The TGI (T-47D breast) was > 10000 µM, the GI50 (NCI/ADR-RES ovarian) was > 10000 µM and the TGI (NCI/ADR-RES ovarian) was > 10000 µM. For the same compound, the GI50 (PC-3 prostate) was > 10000 µM and the TGI (PC-3 prostate) was > 10000 µM.
For `Cc1cn2c(/C=N/N=C(N)N)c(-c3ccc([N+](=O)[O-])cc3)nc2s1`, the TGI (OVCAR-4 ovarian) was 0.316 µM, the TGI (KM12 colon) was 1.72 µM and the TGI (OVCAR-5 ovarian) was 2.14 µM. It also gave a TGI (SW-620 colon) of 0.331 µM, a TGI (A498 renal) of 3.01 µM and a TGI (SNB-75 CNS) of 1.87 µM. It also gave a TGI (UO-31 renal) of 3.37 µM, a TGI (COLO 205 colon) of 1.97 µM and a TGI (HT29 colon) of 2.67 µM. It also gave a TGI (ACHN renal) of 2.82 µM, a TGI (CAKI-1 renal) of 6.57 µM and a TGI (SK-MEL-28 melanoma) of 3.05 µM. The TGI (SK-OV-3 ovarian) was 3.14 µM, the TGI (SF-539 CNS) was 3.05 µM and the TGI (HCT-15 colon) was 2.77 µM. The TGI (NCI/ADR-RES ovarian) was > 100 µM and the TGI (PC-3 prostate) was 2.73 µM.
With `NC(N)=N/N=C/c1c(-c2ccc(Cl)c([N+](=O)[O-])c2)nc2sccn12` the TGI (OVCAR-4 ovarian) was 4.49 µM, the TGI (OVCAR-5 ovarian) was 3.12 µM and the TGI (A498 renal) was 3.14 µM. The TGI (HCC-2998 colon) was 2.94 µM, the TGI (SN12C renal) was 3.29 µM and the TGI (786-0 renal) was 3.15 µM. It also gave a TGI (UO-31 renal) of 3.05 µM, a TGI (TK-10 renal) of 3.16 µM and a TGI (NCI-H460 lung) of 3.3 µM. The TGI (SF-295 CNS) was 3.47 µM, the TGI (COLO 205 colon) was 2.61 µM and the TGI (NCI-H226 lung) was 6.23 µM. For the same compound, the TGI (UACC-62 melanoma) was 3.27 µM, the TGI (MDA-MB-231 breast) was 3.24 µM and the TGI (HT29 colon) was 2.8 µM. It also gave a TGI (ACHN renal) of 3.15 µM, a TGI (SK-MEL-5 melanoma) of 3.26 µM and a TGI (SK-MEL-28 melanoma) of 27.8 µM. It also gave a TGI (DU-145 prostate) of 3.17 µM, a TGI (SF-539 CNS) of 3.27 µM and a TGI (HCT-116 colon) of 2.25 µM. For the same compound, the TGI (HCT-15 colon) was 3.5 µM, the TGI (NCI/ADR-RES ovarian) was > 100 µM and the TGI (PC-3 prostate) was 3.11 µM.
`O=C1NC(=Nc2ccc(O)cc2)S/C1=C\c1cccs1` was tested, and the GI50 (NCI-H23 lung) was > 100 µM, the TGI (NCI-H23 lung) was > 100 µM and the GI50 (EKVX NSCLC) was > 100 µM. The TGI (EKVX NSCLC) was > 100 µM, the GI50 (OVCAR-4 ovarian) was > 100 µM and the TGI (OVCAR-4 ovarian) was > 100 µM. For the same compound, the GI50 (TK-10 renal) was > 100 µM, the TGI (TK-10 renal) was > 100 µM and the GI50 (UACC-257 melanoma) was > 100 µM. The TGI (UACC-257 melanoma) was > 100 µM, the GI50 (COLO 205 colon) was > 100 µM and the TGI (COLO 205 colon) was > 100 µM. For the same compound, the GI50 (MDA-MB-231 breast) was > 100 µM, the TGI (MDA-MB-231 breast) was > 100 µM and the GI50 (HOP-92 NSCLC) was > 100 µM. For the same compound, the TGI (HOP-92 NSCLC) was > 100 µM, the GI50 (SK-MEL-2 melanoma) was > 100 µM and the TGI (SK-MEL-2 melanoma) was > 100 µM. For the same compound, the GI50 (HT29 colon) was > 100 µM, the TGI (HT29 colon) was > 100 µM and the GI50 (SK-MEL-28 melanoma) was > 100 µM. The TGI (SK-MEL-28 melanoma) was > 100 µM, the GI50 (SK-OV-3 ovarian) was > 100 µM and the TGI (SK-OV-3 ovarian) was > 100 µM. The GI50 (MALME-3M melanoma) was > 100 µM, the TGI (MALME-3M melanoma) was > 100 µM and the GI50 (NCI/ADR-RES ovarian) was > 100 µM. For the same compound, the TGI (NCI/ADR-RES ovarian) was > 100 µM.
